Four molecules from US20240423995A1, “C-KIT INHIBITORS AND USES FOR TREATING AND PREVENTING INFLAMMATORY CONDITIONS” (GEORGETOWN UNIVERSITY, priority 2023, published 2024) can be followed below.

The target of one assay is T1, KIT (D816V) (Homo sapiens, UniProt P10721, D816V).
T1 construct: purchased Eurofins DiscoverX Corporation
Briefly: KINOMEscan competition binding screen, KIT (D816V). The conditions noted are these: for remaining binding at 10 µM: read-out: % Ctrl @ 10 μM. On the procedure:
(§1) The KINOMEscan™ screening platform (Eurofins DiscoverX Corporation, San Diego, USA) was performed using an active site-directed competition binding assay to quantitatively measure interactions between BK40143, BK40197, BK40195, and BK40196 and more than 450 human kinases and disease relevant mutant variants. […] Screening “hits” were identified by measuring the amount of kinase captured in test (BK40143, BK40197, BK40195, and BK40196) versus control samples by using a quantitative and ultra-sensitive qPCR method that detects the associated DNA label. BK40143, BK40197, BK40195, and BK40196 were screened at 10 μM concentration, and results for primary screen binding interactions were reported as ‘% Ctrl’ (POC), where lower numbers indicate stronger hits and calculated as follows:
(§2) [formula] • test compound=BK40143 or BK40197 or BK40195 or BK40196 • negative control=DMSO (100% Ctrl) • positive control=control compound (0% Ctrl)
(§3) Based on screening data of profiled compounds, a proportional relationship between primary screening results and corresponding compound/target affinities can be described as binding constants (Kd values) for the indicated ranges of percent of control (PoC) values, with tighter binding (higher affinity) interactions associated with lower PoC values, and weaker binding (lower affinity) associated with higher PoC values. Briefly, kinase-tagged T7 phage strains were grown in parallel in 24-well blocks in an E. coli host derived from the BL21 strain. E. coli were grown to log-phase and infected with T7 phage from a frozen stock (multiplicity of infection=0.4) and incubated with shaking at 32° C. until lysis (90-150 minutes). The lysates were centrifuged (6,000×g) and filtered ([…]) to remove cell debris. The remaining kinases were produced in HEK-293 cells and subsequently tagged with DNA for qPCR detection. Streptavidin-coated magnetic beads were treated with biotinylated small molecule ligands for 30 minutes at room temperature to generate affinity resins for kinase assays. The liganded beads were blocked with excess biotin and washed with blocking buffer (SeaBlock (Pierce), 1% BSA, 0.05% Tween 20, 1 mM DTT) to remove unbound ligand and to reduce non-specific phage binding. Binding reactions were assembled by combining kinases, liganded affinity beads, and test compounds in 1× binding buffer (20% SeaBlock, 0.17×PBS, 0.05% Tween 20, 6 mM DTT). Test compounds were prepared as 100× stocks in 100% DMSO and directly diluted into the assay. All reactions were performed in polypropylene 384-well plates in a final volume of 0.02 ml. The assay plates were incubated at room temperature with shaking for 1 hour and the affinity beads were washed with wash buffer (1×PBS, 0.05% Tween 20). The beads were then re-suspended in elution buffer (1×PBS, 0.05% Tween 20, 0.5 μM non-biotinylated affinity ligand) and incubated at room temperature with shaking for 30 minutes. The kinase concentration in the eluates was measured by qPCR.

Another assay concerns the target T2, KIT (D816H) (Homo sapiens, UniProt P10721, D816H).
T2 construct: purchased Eurofins DiscoverX Corporation
Kind of assay: KINOMEscan competition binding screen, KIT (D816H). The conditions noted are these: for remaining binding at 10 µM: read-out: % Ctrl @ 10 μM. How it is done: as §1, §2, §3

In a further assay the target is T3, KIT (V559D) (Homo sapiens, UniProt P10721, V559D).
T3 construct: purchased Eurofins DiscoverX Corporation
Briefly: KINOMEscan competition binding screen, KIT (V559D). To be noted: for remaining binding at 10 µM: read-out: % Ctrl @ 10 μM. On the procedure: as §1, §2, §3

In a further assay the target is T4, KIT (V559D, V654A) (Homo sapiens, UniProt P10721, V559D/V654A).
T4 construct: purchased Eurofins DiscoverX Corporation
Kind of assay: KINOMEscan competition binding screen, KIT (V559D, V654A). The conditions noted are these: for remaining binding at 10 µM: read-out: % Ctrl @ 10 μM. How it is done: as §1, §2, §3

In a further assay the test system is mast cell degranulation. Briefly: Compound 48/80-induced mast cell degranulation in wild type C57BL/6 mice, toluidine blue blood smear. The format is in vivo. The conditions noted are these: for mast cell degranulation 0.5-1.5 hours post-injection of C48/40: approximately two hours before I.P. injection of compound 48/80, toluidine blue blood smear; for effect on mast cell degranulation induced by C48/40: single I.P. injection two hours prior to compound 48/80 treatment, blood smear. On the procedure:
Wild type C57BL/6J mice were treated with C48/40 to induce mast cell activation. Compound 48/80 is a polymer produced by the condensation of N-methyl-p-methoxyphenethylamine with formaldehyde. It promotes histamine release, and in biochemical research, compound 48/80 (for example, Catalog No. C2313, Sigma-Aldrich, St. Louis, MO) is used to promote mast cell degranulation. Male and female, 4-8 months old wild type C57BL/6 mice were treated only once with intraperitoneal (I.P.) injection of DMSO (control) or DMSO for 2 hours followed by C48/40 for 0.5-1.5 hours. Mice were injected with DMSO approximately 2 hours prior to injection (IP) with 50 μg C48/40 to show degranulation of mast cells 0.5-1.5 hours post-injection of C48/40. Animals were also injected with 20 mg/kg BK40197, BK40195 or BK40196; or 10 mg/kg BK40143 approximately two hours before I.P. injection of C48/40 to show the effects of the drugs on mast cell degranulation approximately 0.5-1.5 hours post-injection of C48/40. Drugs and C48/40 were injected on the same site. n=6 per treatment. Blood was collected and a smear was prepared and stained with Toluidine blue to show mast cell morphology.

Another assay has as its system LUVA cells. Kind of assay: MC maturation in LUVA cells by flow cytometry (CD117, FceR1). The format is cell-based, human. To be noted: 100 ng/mL SCF overnight, then 10 nM, 100 nM, 1 μM compound for 48 hours, vs DMSO. How it is done: A human mast cell (MC) line that arose spontaneously from a culture of non-transformed hematopoietic progenitor cells is described in J Allergy Clin Immunol, 2011, 127:815-22, which is incorporated herein by reference. The cells, termed LUVA cells, are an immortalized human MC line that can be maintained without stem cell factor (SCF) and that display high levels of normally signaling c-kit and FceR1.
The LUVA cells (Kerafast, EG1701-FP) were cultured in StemPro-34 serum-free media with 10% nutrient supplement, 1% L-glutamine, and 1% pen/strep and grown under normal atmospheric conditions (5% CO2). The cells were plated and treated with 100 ng/mL of SCF overnight and then treated with DMSO or an ascending dose of either BK40143, BK40196, or BK40197 for 48 hours, before collection and incubation with two flow-conjugated antibodies (PE anti-mouse CD117 (c-kit) and APC/fire 750 anti-mouse FceR1a) and subsequent analysis via flow cytometry. Group differences were compared using unpaired Student's t-tests.
In general terms: Flow cytometry measures light scatter and fluorescence of single cells or particles in a stream.

The next assay concerns the target T5, KIT (Homo sapiens, UniProt P10721).
T5 construct: purchased Eurofins DiscoverX Corporation
Kind of assay: KINOMEscan competition binding screen, KIT. The conditions noted are these: for remaining binding at 10 µM: lower = stronger binding, read-out: % Ctrl @ 10 μM. On the procedure: as §1, §2, §3

For another assay, the target named is T6, KIT (A829P) (Homo sapiens, UniProt P10721, A829P).
T6 construct: purchased Eurofins DiscoverX Corporation
Briefly: KINOMEscan competition binding screen, KIT (A829P). The conditions noted are these: for remaining binding at 10 µM: read-out: % Ctrl @ 10 μM. How it is done: as §1, §2, §3

T3 sequence (P10721 26-976 V559D): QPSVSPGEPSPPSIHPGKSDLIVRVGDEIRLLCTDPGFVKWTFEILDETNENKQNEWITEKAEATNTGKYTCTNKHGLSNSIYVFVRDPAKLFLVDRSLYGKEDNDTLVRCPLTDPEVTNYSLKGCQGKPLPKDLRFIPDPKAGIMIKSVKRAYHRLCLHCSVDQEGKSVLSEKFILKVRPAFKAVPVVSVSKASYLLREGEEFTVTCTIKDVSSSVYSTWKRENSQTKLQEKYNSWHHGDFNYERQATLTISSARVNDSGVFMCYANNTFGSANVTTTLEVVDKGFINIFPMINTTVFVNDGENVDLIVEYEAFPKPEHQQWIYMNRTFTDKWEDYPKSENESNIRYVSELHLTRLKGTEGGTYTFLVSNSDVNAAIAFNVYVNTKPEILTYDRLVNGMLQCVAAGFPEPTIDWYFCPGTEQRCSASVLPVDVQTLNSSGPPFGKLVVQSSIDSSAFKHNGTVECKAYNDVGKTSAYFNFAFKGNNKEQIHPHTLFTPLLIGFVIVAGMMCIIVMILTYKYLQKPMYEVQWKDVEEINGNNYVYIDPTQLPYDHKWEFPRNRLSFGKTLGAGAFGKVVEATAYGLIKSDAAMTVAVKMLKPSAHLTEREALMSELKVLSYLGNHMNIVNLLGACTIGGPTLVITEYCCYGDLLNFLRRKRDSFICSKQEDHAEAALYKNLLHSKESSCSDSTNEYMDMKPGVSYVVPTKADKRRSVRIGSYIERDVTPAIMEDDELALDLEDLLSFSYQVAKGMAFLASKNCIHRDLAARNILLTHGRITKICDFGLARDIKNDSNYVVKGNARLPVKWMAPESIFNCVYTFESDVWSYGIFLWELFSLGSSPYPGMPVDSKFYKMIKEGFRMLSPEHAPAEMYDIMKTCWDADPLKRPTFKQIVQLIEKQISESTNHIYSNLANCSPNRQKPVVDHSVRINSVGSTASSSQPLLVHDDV
T4 sequence (P10721 26-976 V559D/V654A): as the sequence (P10721 26-976 V559D) above, with V629A counted along it
T1 sequence (P10721 26-976 D816V): as the sequence (P10721 26-976 V559D) above, with D534V, D791V counted along it
T6 sequence (P10721 26-976 A829P): as the sequence (P10721 26-976 V559D) above, with D534V, A804P counted along it
T5 sequence (P10721 26-976): as the sequence (P10721 26-976 V559D) above, with D534V counted along it
T2 sequence (P10721 26-976 D816H): as the sequence (P10721 26-976 V559D) above, with D534V, D791H counted along it

In the case of `Cc1cccc(-c2cc3nccc(N4CCOCC4)c3s2)c1` [BK40197], the inhibition (commonly the drop in the measured response relative to a control, in per cent) at 10 µM at KIT (D816V) worked out at 33%; at KIT (D816H), 0%; on KIT (V559D), 99.7%; at KIT (V559D, V654A), 79%; at KIT it was 97.7%; at KIT (A829P), 0%. In addition, the remaining binding at 10 µM amounted to 67% at KIT (D816V); 100% on KIT (D816H); 0.35% at KIT (V559D); 21% at KIT (V559D, V654A); 0.3% at KIT; 100% on KIT (A829P). Moreover, the “mast cell degranulation 0.5-1.5 hours post-injection of C48/40” value in the assay with mast cell degranulation (20 mg/kg) is “absence of mast cell degranulation”. Further, in the assay on mast cell degranulation, the “effect on mast cell degranulation induced by C48/40” value (“effect” for short) is listed as “significantly prevented mast cell degranulation”. Besides, the “number of immature MCs (CD117 only) compared to mature MCs (CD117 and FceR1)” value with LUVA cells is “significantly increased”.
Consider `COc1cccc(Nc2ccnc3cc(-c4cccc(C)c4)sc23)c1` [BK40195], for which the inhibition at 10 µM at KIT (D816V) worked out at 98.3%; at KIT (D816H) it was 93.9%; on KIT (V559D), 99.8%; on KIT (V559D, V654A), 97.5%; at KIT, 100%; at KIT (A829P), 93.7%. For the same molecule, the remaining binding at 10 µM at KIT (D816V) amounted to 1.7%; on KIT (D816H), 6.1%; at KIT (V559D) it was 0.2%; on KIT (V559D, V654A), 2.5%; on KIT it was 0%; at KIT (A829P), 6.3%. The “mast cell degranulation 0.5-1.5 hours post-injection of C48/40” value in the assay with mast cell degranulation (20 mg/kg) was “absence of mast cell degranulation”. Besides, the “effect” value in the assay on mast cell degranulation was “significantly prevented mast cell degranulation”.
On to `Cc1cccc(-c2cc3nccc(Nc4ccccc4)c3s2)c1` [BK40143], for which the inhibition at 10 µM stood at 65% on KIT (D816V); 54% on KIT (D816H); 99.8% at KIT (V559D); 82% at KIT (V559D, V654A); 100% on KIT; 48% at KIT (A829P). Further, the remaining binding at 10 µM at KIT (D816V) came to 35%; on KIT (D816H), 46%; at KIT (V559D), 0.25%; at KIT (V559D, V654A) it was 18%; at KIT it was 0%; on KIT (A829P) it was 52%. In the assay with mast cell degranulation (10 mg/kg), the “mast cell degranulation 0.5-1.5 hours post-injection of C48/40” value was “absence of mast cell degranulation”. Besides, the “effect” value with mast cell degranulation is reported as “significantly prevented mast cell degranulation”. In the assay on LUVA cells, the “number of immature MCs (CD117 only) compared to mature MCs (CD117 and FceR1)” value is given as “significantly increased”.
Take `Cc1cccc(-c2cc3nccc(Nc4cccc(O)c4)c3s2)c1` [BK40196]: the inhibition at 10 µM at KIT (D816V) amounted to 99.8%; on KIT (D816H) it was 94.1%; on KIT (V559D), 100%; at KIT (V559D, V654A), 98.7%; on KIT it was 100%; at KIT (A829P), 79%. The remaining binding at 10 µM stood at 0.2% on KIT (D816V); 3.9% on KIT (D816H); 0% at KIT (V559D); 1.3% on KIT (V559D, V654A); 0% at KIT; 21% at KIT (A829P). In addition, in the assay with mast cell degranulation (10 mg/kg), the “mast cell degranulation 0.5-1.5 hours post-injection of C48/40” value was “absence of mast cell degranulation”. Further, the “effect” value in the assay with mast cell degranulation is “significantly prevented mast cell degranulation”. Also, the “number of immature MCs (CD117 only) compared to mature MCs (CD117 and FceR1)” value in the assay on LUVA cells is “significantly increased”.
